From patent US8454991B2, “Method and device for photodynamic therapy” (Quest Pharmatech Inc., priority 2006, dated 2013) come the findings set out here.

Series [1] relates to mouse skin. In kind it is in vivo, Male Balb/c mice. The method, then: The feasibility of using these alternative light sources as over the counter devices for topical PDT application is tested using an in vivo hair removal assay to assess their ability to generate a hair removal effect on mouse skin using SL-017, a known photosensitizer. Mouse strain. Male Balb/c mice of approximately 6 to 8 weeks of age weighing 16 to 18 grams were obtained from Charles River animal facility. The animals were allowed a minimum of 1 week to acclimatize to the facility prior to treatment. In vivo hair removal assay. The animals were anesthetized with a 0.1 ml intra peritoneal injection of 12 mg/ml sodium pentobarbital in 0.9% Saline. An approximately 1.5×1.5 cm square area on the back of each animal was shaved and the area treated with a 2% SL-017 topical gel for 60 minutes. The excess gel was removed from the area and it was covered with a template with a 1 cm diameter opening. The open area was treated with either 15 or 30 J/cm^2 of light from a LED flashlight. […] The mice were monitored once weekly for the re-growth of hair in the treated area. For the white LED, the treatment time required for the 15 J/cm^2 dose group was 5 minutes and 45 sec. while for the 30 J/cm^2 dose group was 11 minutes and 30 seconds. For the red LED, the treatment time required for the 15 J/cm^2 dose group was 45 minutes, and for the 30 J/cm^2 dose group was 90 minutes.

The subject of series [2] is EMT-6 tumor cells. Description: In vitro clonogenic assay (PDT phototoxic effect). The settings on record: 2 hours incubation; for inhibition at 5 µM: Mus musculus. Type of series: cell-based. Here is the method: The feasibility of using these alternative light sources as over the counter devices for topical PDT application is tested using an in vitro clonogenic assay to assess their ability to generate a phototoxic effect with SL-017, a known photosensitizer.
In vitro clonogenic assay. EMT-6 tumor cells are grown in culture in RPMI 1640 and plated onto Petri dishes. The photosensitizer SL-017 is added at a fixed concentration of 5 μM to the dishes and allowed to incubate for 2 hours, and then removed. The dishes are irradiated using the different two LED light sources and the orange (rhodamine 6G) chemiluminescent light source at pre-determined light doses. The EMT-6 cells are then re-plated and allowed to grow, for 5 to 7 days The number of surviving colonies in the control and treated plates are counted visually and compared.

Where only a bound is given, the exact number is not on record here.

Regarding `COc1c2c3c4c(c(NCCCN(C)C)c(=O)c5c(O)cc(OC)c(c6c(OC)cc(O)c(c1=O)c63)c54)C=C(C)C2C(C)=O` (stereo not shown) [SL-017], the “delay in hair re-growth” value in series [1] (2% SL-017 topical gel for 60 minutes, red LED light, 30 J/cm^2) is 3 weeks. The “re-growth of hair in the treated area versus controls” value in series [1] (2% SL-017 topical gel for 60 minutes, white LED light, 15 J/cm^2) was “no differences in the re-growth of hair”. For the same compound, in series [1] (2% SL-017 topical gel for 60 minutes, white LED light, 30 J/cm^2), the “delay in re-growth of hair” value is given as < 1 week. The “skin reaction post treatment at the treated site” value in series [1] (mouse, in vivo) was “erythema is observed”. Also, the inhibition (usually the change of the read-out against control, counted positive when it falls) at 5 µM in series [2] (EMT6, SL-017 5 μM, orange (rhodamine 6G) chemiluminescent light stick, 1 hour exposure) came to 31.3%; in series [2] (EMT6, light or radiation study, 2 h, SL-017 5 μM, red LED light (3 W), 0.1 J/cm^2) it was 100%; in series [2] (EMT6, light or radiation study, 2 h, SL-017 5 μM, red LED light (3 W), 0.25 J/cm^2), 100%; in series [2] (EMT6, light or radiation study, 2 h, SL-017 5 μM, red LED light (3 W), 0.4 J/cm^2), 100%; in series [2] (EMT6, light or radiation study, 2 h, SL-017 5 μM, white LED light (9 W), 0.5 J/cm^2) it was 98.6%; in series [2] (EMT6, light or radiation study, 2 h, SL-017 5 μM, white LED light (9 W), 1.0 J/cm^2), 100%. Besides, the inhibition at 5 µM in series [2] (EMT6, light or radiation study, 2 h, SL-017 5 μM, white LED light (9 W), 2.0 J/cm^2) is 100%. Also, the “Number of Colonies” value in series [2] (SL-017 5 μM, orange (rhodamine 6G) chemiluminescent light stick, 1 hour exposure) came to 86.3; in series [2] (SL-017 5 μM, orange (rhodamine 6G) chemiluminescent light stick, 2 hour exposure) it was 187.3; in series [2] (SL-017 5 μM, red LED light (3 W), 0.1 J/cm^2), 0; in series [2] (SL-017 5 μM, red LED light (3 W), 0.25 J/cm^2), 0; in series [2] (SL-017 5 μM, red LED light (3 W), 0.4 J/cm^2) it was 0; in series [2] (SL-017 5 μM, white LED light (9 W), 0.5 J/cm^2), 1.8. Besides, the “Number of Colonies” value in series [2] (SL-017 5 μM, white LED light (9 W), 1.0 J/cm^2) amounted to 0; in series [2] (SL-017 5 μM, white LED light (9 W), 2.0 J/cm^2), 0.
